Assays:
[1] = Drug metabolism in human liver microsomes at 5 uM after 15 mins; assay type: ADME, Microsome; settings: read-out: Drug metabolism
[2] = Drug metabolism in rat liver microsomes at 5 uM after 15 mins; assay type: ADME, Microsome; settings: read-out: Drug metabolism
[3] = molecular target: T1, Metabotropic glutamate receptor 2 (Homo sapiens, UniProt Q14416); assay: Positive allosteric modulation of human mGlu2 receptor expressed in CHO cells assessed as glutamate-induced [35S]GTPgammaS binding after 30 mins by liquid scintillation counting relative to glutamate; assay type: functional, cell-based
Target sequence in this assay (Q14416 19-872 limits assumed): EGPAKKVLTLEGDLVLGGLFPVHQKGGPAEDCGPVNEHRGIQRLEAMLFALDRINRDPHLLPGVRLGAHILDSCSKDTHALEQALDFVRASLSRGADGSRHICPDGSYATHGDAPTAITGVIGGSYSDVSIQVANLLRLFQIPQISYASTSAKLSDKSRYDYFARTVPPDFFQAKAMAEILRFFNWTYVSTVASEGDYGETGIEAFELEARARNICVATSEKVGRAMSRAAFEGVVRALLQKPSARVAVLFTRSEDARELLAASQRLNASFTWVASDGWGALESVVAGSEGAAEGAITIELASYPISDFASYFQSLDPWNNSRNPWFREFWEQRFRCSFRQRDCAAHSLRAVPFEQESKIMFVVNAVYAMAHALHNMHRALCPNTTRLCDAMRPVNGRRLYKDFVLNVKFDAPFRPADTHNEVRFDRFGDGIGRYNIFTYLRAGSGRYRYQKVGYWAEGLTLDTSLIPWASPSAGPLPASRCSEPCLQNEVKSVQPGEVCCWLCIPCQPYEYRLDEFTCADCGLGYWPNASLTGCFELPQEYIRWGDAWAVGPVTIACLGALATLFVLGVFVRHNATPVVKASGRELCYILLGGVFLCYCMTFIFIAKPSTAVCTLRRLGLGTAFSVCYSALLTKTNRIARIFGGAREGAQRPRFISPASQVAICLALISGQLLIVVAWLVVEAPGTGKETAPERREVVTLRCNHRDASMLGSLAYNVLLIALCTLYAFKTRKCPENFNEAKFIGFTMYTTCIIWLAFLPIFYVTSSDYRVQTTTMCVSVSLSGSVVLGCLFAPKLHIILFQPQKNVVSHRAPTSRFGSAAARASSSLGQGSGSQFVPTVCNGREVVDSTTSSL

[4] = molecular target: T1, Metabotropic glutamate receptor 2; assay: Positive allosteric modulation of human mGlu2 receptor expressed in CHO cells assessed as glutamate-induced [35S]GTPgammaS binding after 30 mins by liquid scintillation counting; assay type: functional, cell-based
Target sequence in this assay (Q14416 whole entry): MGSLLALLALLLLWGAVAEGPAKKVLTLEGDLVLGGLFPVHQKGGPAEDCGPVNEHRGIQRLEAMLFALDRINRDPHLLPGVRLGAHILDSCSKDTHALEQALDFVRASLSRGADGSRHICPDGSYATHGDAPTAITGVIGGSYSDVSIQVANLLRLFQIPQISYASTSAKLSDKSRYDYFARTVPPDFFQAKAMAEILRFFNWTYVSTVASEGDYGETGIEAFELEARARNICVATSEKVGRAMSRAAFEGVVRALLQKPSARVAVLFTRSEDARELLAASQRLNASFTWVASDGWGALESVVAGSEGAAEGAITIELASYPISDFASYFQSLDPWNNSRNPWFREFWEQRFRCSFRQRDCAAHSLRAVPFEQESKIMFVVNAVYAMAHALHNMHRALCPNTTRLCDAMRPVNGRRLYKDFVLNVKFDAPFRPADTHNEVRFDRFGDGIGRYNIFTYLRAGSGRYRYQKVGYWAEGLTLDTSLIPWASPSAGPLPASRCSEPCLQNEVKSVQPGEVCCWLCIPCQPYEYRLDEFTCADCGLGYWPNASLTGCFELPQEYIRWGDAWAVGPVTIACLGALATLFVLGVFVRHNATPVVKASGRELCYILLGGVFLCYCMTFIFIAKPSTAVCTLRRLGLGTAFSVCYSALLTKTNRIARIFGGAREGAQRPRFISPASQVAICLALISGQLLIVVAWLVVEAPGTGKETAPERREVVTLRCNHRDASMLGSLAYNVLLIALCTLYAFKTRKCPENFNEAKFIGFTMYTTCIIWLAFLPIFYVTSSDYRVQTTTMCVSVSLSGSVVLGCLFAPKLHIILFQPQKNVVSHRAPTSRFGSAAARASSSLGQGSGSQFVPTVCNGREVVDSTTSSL

hERG = hERG (Homo sapiens, UniProt Q12809); assay: Inhibition of human ERG expressed in HEK293 cells assessed as whole cell current at 3 uM after 5 mins by automated patch-clamp assay relative to control; assay type: cell-based; settings: HEK293 cells expressing hERG
hERG, sequence (Q12809 whole entry): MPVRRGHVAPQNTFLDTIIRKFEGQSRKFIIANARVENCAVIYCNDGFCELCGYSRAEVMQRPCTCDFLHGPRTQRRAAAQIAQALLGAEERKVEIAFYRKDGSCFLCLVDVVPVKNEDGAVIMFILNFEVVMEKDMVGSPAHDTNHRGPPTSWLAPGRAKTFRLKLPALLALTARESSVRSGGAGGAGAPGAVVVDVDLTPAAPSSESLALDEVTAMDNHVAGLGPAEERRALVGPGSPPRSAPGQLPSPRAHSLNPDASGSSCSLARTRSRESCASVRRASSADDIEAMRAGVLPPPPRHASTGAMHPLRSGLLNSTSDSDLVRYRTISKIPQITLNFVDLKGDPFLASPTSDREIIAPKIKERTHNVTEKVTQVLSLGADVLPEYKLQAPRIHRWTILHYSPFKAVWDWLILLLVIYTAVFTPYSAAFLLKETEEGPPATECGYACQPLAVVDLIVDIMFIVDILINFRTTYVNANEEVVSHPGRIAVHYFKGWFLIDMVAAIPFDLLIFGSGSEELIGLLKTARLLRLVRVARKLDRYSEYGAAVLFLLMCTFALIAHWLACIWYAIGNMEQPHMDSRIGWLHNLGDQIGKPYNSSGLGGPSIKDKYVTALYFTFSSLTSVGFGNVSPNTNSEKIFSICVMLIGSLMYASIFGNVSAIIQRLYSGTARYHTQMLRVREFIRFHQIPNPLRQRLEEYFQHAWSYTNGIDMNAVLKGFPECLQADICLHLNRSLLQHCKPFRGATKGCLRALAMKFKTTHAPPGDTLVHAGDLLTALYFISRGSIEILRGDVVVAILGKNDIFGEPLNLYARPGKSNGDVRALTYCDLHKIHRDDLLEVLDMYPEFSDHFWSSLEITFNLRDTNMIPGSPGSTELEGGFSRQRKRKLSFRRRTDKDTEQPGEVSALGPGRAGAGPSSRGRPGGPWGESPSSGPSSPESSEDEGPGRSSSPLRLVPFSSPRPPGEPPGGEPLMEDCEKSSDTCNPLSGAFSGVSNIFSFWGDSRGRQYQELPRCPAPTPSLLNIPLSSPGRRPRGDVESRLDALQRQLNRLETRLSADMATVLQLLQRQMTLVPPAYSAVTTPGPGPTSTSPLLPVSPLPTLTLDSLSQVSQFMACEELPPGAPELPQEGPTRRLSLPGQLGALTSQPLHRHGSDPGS

[5] = Drug level in Swiss mouse brain at 10 mg/kg, sc after 1 hr; assay type: ADME, organism-based; set-up: dose 10 mg/kg, route subcutaneous; settings: read-out: Drug uptake
[6] = Drug level in Swiss mouse brain at 10 mg/kg, sc after 1.5 hrs; assay type: ADME, organism-based; set-up: dose 10 mg/kg, route subcutaneous; settings: read-out: Drug uptake
[7] = Ratio of drug level in brain to plasma in Swiss mouse at 10 mg/kg, sc after 1 hr; assay type: ADME, organism-based; set-up: dose 10 mg/kg, route subcutaneous; settings: read-out: BPR
[8] = Drug level in Swiss mouse brain at 10 mg/kg, sc after 0.5 hrs; assay type: ADME, organism-based; set-up: dose 10 mg/kg, route subcutaneous; settings: read-out: Drug uptake

Structure (SMILES)	metabolised at 0.25 h, 5 µM [1]	metabolised at 0.25 h, 5 µM [2]	Emax [3]	EC50 [4]	inhibition at 5 min, 3 µM (hERG)	concentration at 1 h [5]	concentration at 1.5 h [6]	Kp at 1 h [7]	concentration at 0.5 h [8]
COc1ccc(-c2ccn(CCC(C)C)c(=O)c2C#N)cc1Cl	43%	99%	200%	363 nM	–	–	–	–	–
CC(C)CCn1ccc(-c2ccc(OCC3CC3)cc2)c(C#N)c1=O	17%	16%	192%	290 nM	–	–	–	–	–
Cc1cc(Oc2ccc(-c3ccn(CC4CCC4)c(=O)c3C#N)cc2)ccn1	36%	44%	233%	126 nM	80%	–	–	–	–
CC(C)CCn1ccc(-c2ccc(OC3CCOCC3)c(Cl)c2)c(C#N)c1=O	36%	54%	197%	186 nM	–	–	–	–	–
CC(C)CCn1ccc(-c2ccc(NC3CCOCC3)c(Cl)c2)c(C#N)c1=O	42%	47%	247%	174 nM	–	–	–	–	–
Cc1ccc(Oc2ccc(-c3ccn(CC4CC4)c(=O)c3C#N)cc2Cl)c(C)n1	25%	27%	196%	64 nM	89%	357 ng/g	240 ng/g	0.1	750 ng/g
Cc1ccc(Oc2ccc(-c3ccn(CC4CC4)c(=O)c3C#N)cc2)c(C)n1	35%	42%	183%	263 nM	68%	–	–	–	–
CC(C)CCn1ccc(-c2ccc(OC3CCCC3)c(Cl)c2)c(C#N)c1=O	–	–	199%	100 nM	–	–	–	–	–
COc1ccc(-c2ccn(CCC(C)C)c(=O)c2C#N)cc1	–	–	160%	1150 nM	–	–	–	–	–
CCCCn1ccc(-c2ccc(Oc3ccc(C)nc3C)cc2)c(C#N)c1=O	51%	60%	239%	138 nM	–	–	–	–	–
COc1ccccc1-c1ccn(CCC(C)C)c(=O)c1C#N	38%	–	120%	> 10000 nM	–	–	–	–	–
CCCCn1ccc(-c2ccc(Oc3ccnc(C)c3)cc2F)c(C#N)c1=O	31%	50%	232%	–	52%	–	–	–	–
Cc1ncccc1Oc1ccc(-c2ccn(CCC(C)C)c(=O)c2C#N)cc1	57%	45%	256%	275 nM	36%	–	–	–	–
Cc1ncccc1Oc1ccc(-c2ccn(CC3CC3)c(=O)c2C#N)cc1Cl	37%	22%	180%	230 nM	75%	–	–	–	–
CCCCn1ccc(-c2ccc(Oc3cc(C)nc(C)c3)c(F)c2)c(C#N)c1=O	16%	41%	217%	372 nM	71%	–	–	–	–
Cc1ncccc1Oc1ccc(-c2ccn(CC3CC3)c(=O)c2C#N)cc1	36%	39%	155%	1070 nM	–	–	–	–	–
CC(C)CCn1ccc(-c2ccc(Nc3ccncc3)cc2)c(C#N)c1=O	25%	33%	186%	1480 nM	91%	–	–	–	–

Source: ChEMBL document CHEMBL2029212, “Discovery of 1,4-disubstituted 3-cyano-2-pyridones: a new class of positive allosteric modulators of the metabotropic glutamate 2 receptor” (J Med Chem, 2012)
